These results are taken from patent publication US10159254B2, “Weed control methods” (Syngenta Participations AG, priority 2013, dated 2018).

The test system of data set [1] is Velvetleaf (Abutilon theophrasti). Kind of data set: Greenhouse weed control: HPPD inhibitors with or without Sequestrene 138Fe, velvetleaf. It counts as in vivo. Particulars: percent velvetleaf control 19 DAT. As for the experimental part: Effect of Tank Mix Applications of HPPD Inhibitors and Sequestrene® 138Fe on Velvetleaf Control. Percent Control Assessed 19 DAT
(§1) A greenhouse experiment is conducted to determine the effect of chelated iron on weed control in the greenhouse. Velvetleaf (Abutilon theophrasti) and common waterhemp (Amaranthus rudis) plants are grown in 4×4-inch pots filled with a greenhouse potting mix. When the plants reached the 2 to 3 inch height (2 to 3 leaf stage), they are sprayed with a reduced rate of an HPPD inhibitor alone or in a tank mix combination with Sequestrene 138Fe at 140 g/ha (equivalent to 8.4 g iron/hectare) or 280 g/ha (equivalent to 16.8 g iron/hectare). […] Observations on percent control are recorded 12, 19, and 25 days after treatment.

The test system of data set [2] is common waterhemp (Amaranthus rudis). Briefly: Greenhouse weed control: HPPD inhibitors with or without Sequestrene 138Fe, common waterhemp. It counts as in vivo. As to conditions: common waterhemp control 17 DAT. As for the experimental part:
as §1
Effect of Tank Mix Applications of Various HPPD Inhibitors and Sequestrene 138Fe on Common Waterhemp Control. Injury Assessed 17 DAT
An experiment is performed to look at the effect of applying iron chelates on control of Common Waterhemp using HPPD-inhibiting herbicides. Experiment design is analogous to that outlined in Experiment 3 above.

In data set [3] the test system is HPPD-tolerant soybean event SYHT0H2. Briefly: Glasshouse: post-emergence HPPD herbicide damage with or without Sequestrene 138Fe, 7 DAA. It counts as in vivo. Particulars: isoxaflutole, tembotrione. How it is done:
(§2) Safening of Various HPPD-inhibiting Herbicides in HPPD-tolerant Soybean Events SYHT04R and SYHT0H2
(§3) An experiment is performed to determine whether the addition of chelating iron to the spray formulation can mitigate foliar bleaching injury from the HPPD herbicides mesotrione, bicyclopyrone, tembotrione, isoxaflutole, topramezone and pyrasulfatole when applied post-emergence to the HPPD-tolerant soybean events SYHT04R and SYHT0H2.
(§4) Soybean plants are grown in a glasshouse (24° C. day, 18° C. night; 65% relative humidity; 16 hour photoperiod). Two replicates are utilised in respect of SYHT0H2 (growth stage V1-V3) and three replicates are utilised in respect of SYHT04R (growth stage V1 to V3). Spray applications are applied post-emergence at […]. Herbicide damage was assessed 7 DAA (Days After Application).

Data set [4] has as its system HPPD-tolerant soybean event SYHT04R. The description is as above. Format: in vivo. Particulars: isoxaflutole, tembotrione. As for the experimental part: as §2, §3, §4
Data set [5] has as its system SYHT0H2 soybeans. Briefly: Greenhouse: water-soluble iron compounds safening mesotrione, maximum injury. Particulars: in vivo. As for the experimental part: An experiment is conducted to look at the safening effect of a variety of water-soluble iron-containing compounds. SYHT0H2 soybean plants are grown in small pots filled with a greenhouse potting mix. […] In all cases, mesotrione was applied at 420 g ai/ha and all treatments contained liquid ammonium sulphate at 2.5% v/v and NIS at 0.25% v/v. The application rates of iron-containing compounds indicated are iron equivalent rates. […] Percent injury levels were assessed 6, 9, and 16 days after treatment. Data presented are maximum injury occurring from any of the treatments at any time during the experiment.

The subject of data set [6] is SYHT0H2 soybeans. Briefly: Greenhouse: Sequestrene 138Fe rate series, percent injury from HPPD-inhibitors at 7 DAT. Format: in vivo, soybean. Particulars: mesotrione 420, bicyclopyrone 200, tembotrione 368, topramezone 72 g/ha. How it is done:
Effect of Sequestrene® 138Fe on Percent Injury from Various HPPD-inhibitors on SYHT0H2 Soybeans. Injury Assessed at Seven Days after Treatment (7 DAT)
SYHT0H2 soybeans are grown in 4×4-inch pots filled with a greenhouse potting mix. When the plants reach the V2-V3 growth stage, they are treated with an HPPD inhibitor applied alone or in a tank mixture with Sequestrene 138Fe at various rates ranging from 140 g product/ha (equivalent to 8.4 g iron/ha) to 2240 g product/ha (equivalent to 134 g iron/ha).

Data set [7] relates to SYHT0H2 soybeans. Kind of data set: Greenhouse: tank-mix and sequential Sequestrene 138Fe, HPPD-inhibitor maximum injury. It counts as in vivo, soybean. As for the experimental part: Effect of Tank-mix and Sequential Application of Sequestrene® 138 on Mesotrione (Applied as Callisto®)—Maximum Injury in SYHT0H2 Soybeans
An experiment is conducted in the greenhouse to determine the effect of chelated iron (Sequestrene 138Fe containing 6% iron) on HPPD-inhibitor injury to SYHT0H2 soybeans. Soybeans are grown in pots filled with a greenhouse potting mix. When the plants reach the V2-V3 stage, they are sprayed with an HPPD-inhibitor herbicide applied alone (Treatment 1), or in tank mixture with Sequestrene 138Fe (Treatment 2), or sequentially with Sequestrene 138Fe applied 1 day before the HPPD inhibitor (Treatment 3). Sequestrene 138Fe is applied at 2240 g/ha (equivalent to 134 g iron/ha). All treatments are applied with liquid ammonium sulfate @ 2.5% v/v and a non-ionic surfactant (NIS) @ 0.25% v/v in 150 L/ha water. Observations on percent injury are recorded 5, 11, or 22 days after treatment. Data presented are maximum injury observed during the trial.

The subject of the next data set is SYHT04R soybean. Kind of data set: Greenhouse: chelated Fe versus chelated Mn, bicyclopyrone maximum injury. It counts as in vivo. Particulars: additive none, maximum injury of 5 and 9 days after treatment. As for the experimental part:
Effect of Chelated Fe and Chelated Mn on Safening SYHT04R Soybean from Bicyclopyrone Injury
A greenhouse experiment is conducted to determine if chelating agents containing nutrient elements other than Fe were also effective in safening HPPD herbicide-tolerant soybeans.
SYHT04R soybean plants are grown in 4×4-inch pots filled with a greenhouse potting mix. When the plants reached the V2-V3 growth stage, they are sprayed with an HPPD inhibitor alone or in combination with Sequestrene 138Fe or a solution containing 6% EDTA-chelated Mn. […] Observations on percent injury were recorded 5, and 9 days after treatment. Data presented are maximum injury observed during the experiment.

A further data set has as its system SYHT04R soybeans. Briefly: Greenhouse: Sequestrene 138Fe safening of HPPD-inhibitors, injury 6 days after treatment. Format: in vivo, soybean. As to conditions: 6 days after treatment (maximum injury), mesotrione 420, bicyclopyrone 200, isoxaflutole 280 g/ha. How it is done:
Effect of Sequestrene® 138Fe on Various HPPD-inhibitors in SYHT04R Soybeans. Maximum Injury Assessed 6 Days after Treatment
A greenhouse experiment is conducted to determine if Sequestrene® 138Fe was effective in safening various other HPPD herbicide-tolerant soybean events, such as SYHT04R.
SYHT04R soybean plants are grown in 4×4-inch pots filled with a greenhouse potting mix. When the plants reached the V2-V3 growth stage, they are sprayed with an HPPD inhibitor alone or in combination with Sequestrene® 138Fe at 1120 g/ha (equivalent to 67.2 g iron/ha). […] Observations on percent injury are recorded at 6 and 20 days after treatment. Data presented is from the 6 days after treatment rating representing the maximum injury observed during the experiment.

Setting [8] is: Sequestrene 138Fe 0 g/ha, g ai/ha: mesotrione 26, isoxaflutole 26, bicyclopyrone 50, tembotrione 46, pyrasulfatole 22, topramezone 18.
[9] abbreviates: Sequestrene 138Fe 280 g/ha tank mix, g ai/ha: bicyclopyrone 50, tembotrione 46, pyrasulfatole 22, topramezone 18.
The mark [10] stands for this setting: Sequestrene 138Fe 1000 g/ha, g ai/ha: mesotrione 200, bicyclopyrone, pyrasulfatole 100, topramazone 50.
Setting [11] is: Sequestrene 138Fe 1000 g/ha, g ai/ha: mesotrione 800, bicyclopyrone, pyrasulfatole 400, topramazone 200.
Where [12] appears, read: no Sequestrene 138Fe, g ai/ha: mesotrione 200, bicyclopyrone, pyrasulfatole 100, topramazone 50.
Where [13] appears, read: no Sequestrene 138Fe, g ai/ha: mesotrione 800, bicyclopyrone, pyrasulfatole 400, topramazone 200.
The mark [14] stands for this setting: Sequestrene 138Fe 140 g/ha tank mix.
Where [15] appears, read: Sequestrene 138Fe 280 g/ha tank mix.
Setting [16] is: Sequestrene 138Fe 560 g/ha tank mix.
[17] abbreviates: Sequestrene 138Fe 1120 g/ha tank mix.
[18] abbreviates: Sequestrene 138Fe 2240 g/ha tank mix.
[19] abbreviates: Sequestrene 138Fe 140 g/ha tank mix, mesotrione 26, isoxaflutole 26 g ai/ha.

Regarding `Cc1nn(C)c(O)c1C(=O)c1ccc(C(F)(F)F)cc1S(C)(=O)=O` [Pyrasulfatole, pyrasulfotole], the “% Injury” value in data set [1] (setting [8]) is recorded as 85%; in data set [1] (setting [9]), 80%; in [2] (setting [8]) it was 98%; in [2] (setting [9]), 77%. Also, the “Herbicide damage SYHT0H2” value in data set [3] (setting [10]) amounted to 10; in data set [3] (setting [11]), 18; in data set [3] (setting [12]), 10; in [3] (setting [13]), 4. In addition, the “Herbicide damage SYHT04R” value in [4] (setting [10]) is given as 0; in data set [4] (setting [11]), 2; in data set [4] (setting [12]) it was 4; in [4] (setting [13]), 12.
For the compound iron DTPA [Sequestrene 330-Fe], the “safening SYHT0H2 soybeans from mesotrione injury” value with SYHT0H2 soybeans [5] was “effective”.
For `Cc1c(C(=O)c2cnn(C)c2O)ccc(S(C)(=O)=O)c1C1=NOCC1` [Topramezone, topramezone], the “% Injury” value in [1] (setting [8]) came to 96%; in data set [1] (setting [9]) it was 93%; with SYHT0H2 soybeans [6] (Sequestrene 138Fe 0 g/ha) it was 8%; with SYHT0H2 soybeans [6] (setting [14]), 0%; with SYHT0H2 soybeans [6] (setting [15]), 0%; in the data set with SYHT0H2 soybeans [6] (setting [16]), 0%. Further, the “% Injury” value in the data set on SYHT0H2 soybeans [6] (setting [17]) amounted to 0%; with SYHT0H2 soybeans [6] (setting [18]), 0%; in data set [2] (setting [8]), 100%; in data set [2] (setting [9]) it was 99%. Moreover, the “Herbicide damage SYHT0H2” value is 5 in [3] (setting [10]), 0 in [3] (setting [11]), 8 in [3] (setting [12]) and 23 in data set [3] (setting [13]). Further, the “Herbicide damage SYHT04R” value is on record as 2 in data set [4] (setting [10]), 3 in data set [4] (setting [11]), 5 in data set [4] (setting [12]) and 17 in data set [4] (setting [13]).
Consider `CS(=O)(=O)c1ccc(C(=O)C2C(=O)CCCC2=O)c(Cl)c1COCC(F)(F)F` [Tembotrione, tembotrione], for which the “% Injury” value in data set [1] (setting [8]) is listed as 98%; in data set [1] (setting [9]) it was 99%; in data set [2] (setting [8]) it was 99%; in data set [2] (setting [9]), 99%. Besides, in the data set on SYHT0H2 soybeans [7] (in vivo), the “% Maximum Injury” value is 31%.
With bicyclopyrone, the “% Injury” value in [1] (setting [8]) was found to be 100%; in data set [1] (setting [9]), 100%; with SYHT0H2 soybeans [6] (Sequestrene 138Fe 0 g/ha), 23%; in the data set on SYHT0H2 soybeans [6] (setting [14]), 12%; in the data set on SYHT0H2 soybeans [6] (setting [15]), 10%; in the data set on SYHT0H2 soybeans [6] (setting [16]), 1%. Further, the “% Injury” value is given as 0% with SYHT0H2 soybeans [6] (setting [17]); 0% with SYHT0H2 soybeans [6] (setting [18]); 90% in [2] (setting [8]); 96% in [2] (setting [9]); 29% in the data set with SYHT04R soybean; 29% with SYHT04R soybeans (Sequestrene 138Fe 0 g/ha). Besides, in the data set on SYHT04R soybeans (Sequestrene 138Fe 1120 g/ha), the “% Injury” value is reported as 7%. In addition, the “% Maximum Injury” value worked out at 12% in the data set with SYHT0H2 soybeans [7] (Sequestrene 138Fe 2240 g/ha applied 1 day before herbicide (Treatment 3, sequential), mesotrione 420, bicyclopyrone 200, tembotrione 368 g ai/ha); 25% in the data set with SYHT0H2 soybeans [7] (herbicide alone (Treatment 1), mesotrione 420, bicyclopyrone 200, tembotrione 368 g ai/ha, maximum of 5, 11, 22 days after treatment); 3% in the data set on SYHT0H2 soybeans [7] (tank mix with Sequestrene 138Fe 2240 g/ha (Treatment 2, simultaneous), mesotrione 420, bicyclopyrone 200, tembotrione 368 g ai/ha). The “Herbicide damage SYHT0H2” value was found to be 3 in data set [3] (setting [10]), 25 in data set [3] (setting [11]), 13 in data set [3] (setting [12]) and 40 in data set [3] (setting [13]). For the same compound, the “Herbicide damage SYHT04R” value in data set [4] (setting [10]) came out at 5; in data set [4] (setting [11]), 30; in data set [4] (setting [12]) it was 15; in data set [4] (setting [13]) it was 42.
Consider `O=S(=O)([O-])[O-].[Fe+2]` [Ferrous Sulfate (Fe2SO4), iron (II) sulphate (ferrous sulphate)], for which the “safening SYHT0H2 soybeans from mesotrione injury” value with SYHT0H2 soybeans [5] is “effective”.
For `CS(=O)(=O)c1cc(C(F)(F)F)ccc1C(=O)c1cnoc1C1CC1` [Isoxaflutole, isoxaflutole], the “% Injury” value was 78% in data set [1] (setting [8]), 82% in [1] (setting [19]), 87% in data set [2] (setting [8]) and 88% in [2] (setting [19]).
